Data: patent US7375109B2, “Glycine-substituted thieno[2,3-d]pyrimidines with combined LH and FSH agonistic activity” (N.V. Organon, priority 2001, dated 2008)

Experiments:
[1] = system: immature female mice; assay: In vivo bioactivity: ovulation induction in immature mice; conditions: immature female mice primed with urinary FSH (Humegon 12.5 IU/animal); 50 mg/kg about 48 hours later; killed 24 hours after treatment
Description: To measure LH in vivo activity of compounds, ovulation induction in immature mice can be studied. In this assay immature female mice are primed with urinary FSH and approximately 48 hours later treated with a LH agonistic compound. The animals are killed after LH agonist treatment and the number of ova in the oviduct is microscopically assessed.
To measure in vivo activity of LH/FSH receptor agonistic compounds ovulation induction in immature mice were studied. In this assay immature female mice were primed with urinary FSH (Humegon 12.5 IU/animal). Approximately 48 hours later the animals were treated with a LH/FSH agonistic compound, the preparation of which is described in examples 1, 4, 9 and 17, at a dose-level of 50 mg/kg. The animals were killed 24 hours after LH/FSH agonist treatment and the number of ova in the oviduct was microscopically assessed. On average 10-15 animals were tested. The mean number of ova amounted 8 with the exception of the compound of example 17 (which was 0.4).

[2] = target: T1, human FSH receptor (Homo sapiens, UniProt P23945); assay: CHO-FSH in vitro bioactivity (CRE-luciferase reporter); format: cell-based; conditions: CHO cells transfected with human FSH receptor and luciferase reporter gene
T1 construct: expressed in transfected cells; host or cells: CHO cells transfected with human FSH receptor and CRE-luciferase reporter
T1 sequence (P23945 18-695): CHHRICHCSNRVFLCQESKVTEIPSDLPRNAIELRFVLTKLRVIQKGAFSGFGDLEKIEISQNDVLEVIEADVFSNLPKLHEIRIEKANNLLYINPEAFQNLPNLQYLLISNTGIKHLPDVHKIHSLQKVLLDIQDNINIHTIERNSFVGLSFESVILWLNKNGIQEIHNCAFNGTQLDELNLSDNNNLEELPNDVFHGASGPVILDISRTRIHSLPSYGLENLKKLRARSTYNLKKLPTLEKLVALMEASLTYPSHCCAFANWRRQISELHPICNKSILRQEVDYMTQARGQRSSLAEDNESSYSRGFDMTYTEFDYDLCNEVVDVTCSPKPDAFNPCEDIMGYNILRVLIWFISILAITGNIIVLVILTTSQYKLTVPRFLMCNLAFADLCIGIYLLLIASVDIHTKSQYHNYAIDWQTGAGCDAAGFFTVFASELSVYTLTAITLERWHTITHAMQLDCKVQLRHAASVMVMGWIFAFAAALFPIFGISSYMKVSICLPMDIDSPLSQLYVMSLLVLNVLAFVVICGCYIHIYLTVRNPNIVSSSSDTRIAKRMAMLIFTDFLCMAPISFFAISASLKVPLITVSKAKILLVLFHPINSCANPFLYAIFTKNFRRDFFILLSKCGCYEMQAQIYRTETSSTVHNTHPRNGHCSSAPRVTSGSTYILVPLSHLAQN
Description: (§1) It has been shown that compounds of the above mentioned formula I show agonistic LH and FSH activity. […] Typically the FSH activity ranges from an activity of about 0.1% of the LH agonist stimulation to about 10% of the LH agonist stimulation.
(§2) LH agonistic activity of compounds were tested in Chinese Hamster Ovary (CHO) cells stably transfected with the human LH receptor and cotransfected with a cAMP responsive element (CRE)/promotor directing the expression of a firefly luciferase reporter gene. Binding of ligand to the Gs-coupled LH receptor will result in an increase of cAMP, which in turn will induce an increased transactivation of the luciferase reporter construct. The luciferase signal was quantified using a luminescence counter. For test compounds, EC50 values (concentration of test compound causing half-maximal (50%) stimulation) were calculated. For that purpose the software program GraphPad PRISM, version 3.0 (GraphPad software Inc., San Diego) was used.
In a similar way FSH agonistic activity of compounds were tested in CHO cells transfected with the luciferase reporter gene and the human FSH receptor.

[3] = target: T2, human LH receptor (Homo sapiens, UniProt P22888); assay: CHO-LH in vitro bioactivity (CRE-luciferase reporter); format: cell-based; conditions: CHO cells stably transfected with human LH receptor
T2 construct: expressed in transfected cells; host or cells: Chinese Hamster Ovary (CHO) cells, stably transfected; cotransfected with CRE-luciferase reporter
T2 sequence (P22888 27-699): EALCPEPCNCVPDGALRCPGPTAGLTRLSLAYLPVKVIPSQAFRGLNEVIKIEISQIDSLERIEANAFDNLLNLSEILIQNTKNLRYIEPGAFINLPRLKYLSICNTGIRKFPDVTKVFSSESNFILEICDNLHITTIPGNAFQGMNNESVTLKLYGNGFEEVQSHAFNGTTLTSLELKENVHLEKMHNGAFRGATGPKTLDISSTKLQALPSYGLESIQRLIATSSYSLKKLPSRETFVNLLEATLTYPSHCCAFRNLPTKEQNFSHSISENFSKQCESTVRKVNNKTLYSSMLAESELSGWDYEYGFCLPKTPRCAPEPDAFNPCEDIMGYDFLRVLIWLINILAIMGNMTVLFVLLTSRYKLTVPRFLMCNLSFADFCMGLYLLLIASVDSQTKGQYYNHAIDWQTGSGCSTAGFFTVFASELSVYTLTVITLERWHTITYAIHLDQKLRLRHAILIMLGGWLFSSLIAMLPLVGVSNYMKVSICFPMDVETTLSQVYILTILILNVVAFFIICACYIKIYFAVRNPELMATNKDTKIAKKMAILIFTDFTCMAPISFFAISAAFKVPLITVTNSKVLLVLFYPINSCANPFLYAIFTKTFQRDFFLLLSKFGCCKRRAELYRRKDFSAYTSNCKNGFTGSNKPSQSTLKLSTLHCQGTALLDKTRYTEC
Description: as §1, §2

EC50 [2] | EC50 [3] | SMILES | mean number of ova in the oviduct [1]
1250 nM | 10.4 nM | CCNc1nc(-c2cccc(NC(=O)CN(CC)CCOC)c2)c2c(N)c(C(=O)NC(C)(C)C)sc2n1 [Example 17, tert-Butyl 5-amino-2-ethylamino-4-(3-((N-ethyl-N-(2-methoxyethyl)-glycinyl)-amino)-phenyl)-thieno[2,3-d]pyrimidine-6-carboxamide] | 0.4
606 nM | 4.82 nM | CCN(CCO)CC(=O)Nc1cccc(-c2nc(-c3ccccc3)nc3sc(C(=O)NC(C)(C)C)c(N)c23)c1 [Example 9, tert-Butyl 5-amino-2-phenyl-4-(3-((N-ethyl-N-(2-hydroxyethyl)-glycinyl)-amino)-phenyl)-thieno[2,3-d]pyrimidine-6-carboxamide] | 8
101 nM | 7 nM | CCN(CCOC)CC(=O)Nc1cccc(-c2nc(SC)nc3sc(C(=O)NC(C)(C)C)c(N)c23)c1 [Example 4, tert-Butyl 5-amino-2-methylthio-4-(3-((N-ethyl-N-(2-methoxyethyl)-glycinyl)-amino)-phenyl)-thieno[2,3-d]pyrimidine-6-carboxamide] | 8
